pIC50: −log10 of the molar value.
Columns and labels:
[1] = target: T1, wtKIT (Homo sapiens, UniProt P10721); assay: HTRF biochemical assay, wtKIT (phosphorylation of a peptide substrate); details: Table 4
T1 construct: 1888289AM in the reaction mixtures
Method in brief: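 wtKIT (5.0 nM) phosphorylating 1 µM FAM-labelled peptide with 400 µM ATP and 10 mM MnCl2 in 100 mM HEPES pH 7.5, 1% DMSO, 3 h at 25 °C. EDTA quench; phosphopeptide detected with anti-phosphotyrosine antibody by HTRF. Enzyme titrated for 10-20% substrate conversion.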

[2] = Kinetic solubility assay; assay type: physicochemical; details: kinetic solubility, 50 mM PB (pH 7.4), shaken 24 hours at RT
Method in brief: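 Test compounds from 10 mM DMSO stock were diluted in 50 mM phosphate buffer, pH 7.4, and shaken for 24 h at RT. After PTFE filtration and centrifugation, filtrate concentration was quantified by UPLC-UV/HPLC-UV against a standard curve.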

[3] = target: T2, CSF-1R (Homo sapiens, UniProt P07333); assay: HTRF biochemical assay, CSF-1R; details: Table 4
T2 construct: purchased Invitrogen PV3249 (lot 662393N)
T2 sequence (P07333 20-972): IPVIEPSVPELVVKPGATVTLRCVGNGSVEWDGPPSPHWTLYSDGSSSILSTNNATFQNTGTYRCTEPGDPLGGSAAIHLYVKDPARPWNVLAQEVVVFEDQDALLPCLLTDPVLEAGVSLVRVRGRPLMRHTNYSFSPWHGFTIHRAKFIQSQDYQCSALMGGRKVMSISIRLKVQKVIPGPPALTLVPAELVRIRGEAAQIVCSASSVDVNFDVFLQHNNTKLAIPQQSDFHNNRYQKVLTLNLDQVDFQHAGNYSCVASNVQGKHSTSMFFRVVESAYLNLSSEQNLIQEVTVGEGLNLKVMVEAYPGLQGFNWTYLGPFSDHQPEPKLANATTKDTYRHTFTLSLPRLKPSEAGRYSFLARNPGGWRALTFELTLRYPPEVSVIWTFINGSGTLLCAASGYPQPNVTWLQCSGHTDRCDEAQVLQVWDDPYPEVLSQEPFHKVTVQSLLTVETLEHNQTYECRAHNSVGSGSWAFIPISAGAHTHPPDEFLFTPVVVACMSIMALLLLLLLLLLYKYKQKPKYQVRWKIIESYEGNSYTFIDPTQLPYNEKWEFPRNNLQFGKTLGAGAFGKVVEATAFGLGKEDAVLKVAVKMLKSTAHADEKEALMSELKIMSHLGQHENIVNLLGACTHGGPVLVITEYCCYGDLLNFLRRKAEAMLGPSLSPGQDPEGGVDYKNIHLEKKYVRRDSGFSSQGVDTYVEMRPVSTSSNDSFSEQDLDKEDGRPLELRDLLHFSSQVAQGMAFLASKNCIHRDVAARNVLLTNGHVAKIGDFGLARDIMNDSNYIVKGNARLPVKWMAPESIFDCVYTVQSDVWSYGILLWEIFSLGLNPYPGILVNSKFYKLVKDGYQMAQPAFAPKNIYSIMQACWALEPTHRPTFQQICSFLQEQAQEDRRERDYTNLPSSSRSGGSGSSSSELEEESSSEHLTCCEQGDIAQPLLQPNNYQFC
Protocol: (§1) Exemplary compounds were tested for ability to inhibit the phosphorylation of a peptide substrate by the tyrosine kinase wt KIT, PDGFRα, or CSF-1R. Assay procedures and results are described below.
(§2) Enzyme, substrate, and cofactors (ATP and Mn^2+) are combined in a well of a microtiter plate and incubated for 3 hours at 25° C. At the end of the incubation, the reaction is quenched by the addition of an EDTA-containing buffer.
(§3) The substrate used in the CSF-1R and PDGFRα assay is FAM-[…]-CONH2 (FAM is carboxyfluorescein). Peptide should be >95% purity. The substrate for the KIT assay is FAM-[…]-NH2.
(§4) • 1. To a well of a 384-wellplate add 5 μL of 2× enzyme buffer (or control). • 2. Add 100 nL of 100× compound. Enzyme and compound may be pre-incubated at this time if desired. • 3. Add 5 μL of 2× substrate buffer. • 4. Incubate plate at 25° C. for 3 hours. • 5. Add 10 uL of anti-phosphotyrosine antibody buffer. • 6. Read plate in BioTek Synergy Reader. Reaction Conditions for wtKIT Assay

[4] = tested on: KIT phosphorylation in M-07e cells; assay: Cell-based KIT phosphorylation in M-07e cells by pKIT ELISA; set-up: species or system human; details: SCF stimulation
Protocol: Exemplary compounds were tested for ability to inhibit KIT phosphorylation using M-07e cells as monitored by pKIT ELISA. M-07e cells are also represented as M-07E, M-07e, M07-e, M07e, Mo7e, MO7e, M07E and MO7E. Assay procedures and results are described below.
Part I—Procedures for Determining KIT Inhibition inM-07e Cells Using pKTT ELISA Reagents and consumables: • M-07e cells: Initially obtained from Accegen, cat #ABC-TC1313 • p-cKIT Capture ELISA antibody: anti-Human Phospho-CD117/c-kit, R&D cat #DYC3527-5 • Anti-pY-HIRP antibody: R&D cat #DYC3527-5 • 25× wash buffer: Quantikine ELISA Wash Buffer 1, R&D cat #WA126 • PBS: R&D cat #DY006 • 96 well ELISA plates: Clear Polystyrene Microplates, R&D Cat #DY990 • 96 well Tissue culture plates: Corning® 96 Well TC-Treated Microplates, cat #CLS3894 • RPMI medium: ATCC® RPMI-1640 Medium, Cat #30-2001 • FBS: Fetal Bovine Serum, certified, United States Gibco, Thermo-Fisher 16000044 • GM-CSF: Recombinant Human GM-CSF Protein, R&D cat #215-GM • SCF: Recombinant Human SCF Protein, R&D cat #255-SC
• 1. Prepare cells: • a. Culture M-07e cells in RPMI medium+20% serum+GM-CSF+penstrep • To make 50 mL of growth medium • i. 40 mL RPMI media • ii. 10 mL FBS • iii. 10 uL of GM-CSF (100 ug/mL stock) • iv. 0.5 mL pen strep (100×) • b. Harvest cells • c. Re-suspend cells in 100% RPMI media (without serum) to final concentration of 1 million cells/mL • d. Transfer 100 uL of cell solution to 11 columns of a 96 well flat bottom cell culture plate • e. Incubate cells over night at 37 C • 2. Prepare ELISA Plates: • a. Dilute capture antibody to concentration 4 ug/mL in PBS • b. Coat 96 well microplates with 100 uL of capture antibody • c. Seal plates and incubate at RT overnight • d. Wash plates with 300 uL of wash buffer • e. Repeat wash • f. Treat plates with 300 uL of blocking buffer at RT for 1 hour • 3. Addition of compounds: • a. Prepare compound dilutions in RPMI media • i. Top test concentration is 1 uM • ii. Serially dilute compounds 3× for a total of 8 concentrations • b. Add 10 uL of 10× compound dilutions to cells • i. No compounds added in column 11 (for controls) • c. Incubate cells with compounds for 2 hours at 37 C • d. Stimulate cells with SCF for 5 min at concentration of 100 ng/mL (final) • i. In column 11 stimulate top 4 wells. Leave bottom 4 wells unstimulated • e. Remove cell culture media with multichannel pipet • f. Add 110 uL of Lysis buffer to all wells • g. Incubate plates at RT for 30 min while shaking • 4. Transfer 100 uL of cell lysis to each prepared Elisa plate • 5. Add 100 uL of the standard pc-KIT dilutions to the standard wells in column 12 • a. Top concentration=2000 pg/mL • b. 2× dilutions • 6. Incubate ELISA plate with cell lysate for 2 hours at RT • 7. Wash Plate with wash buffer (wash 1) • 8. Repeat wash (wash 2) • 9. […] Add 100 uL of diluted anti-pY-HRP (1/1000 dilution in detection antibody dilution buffer) and incubate 2 hours at RT • 11. Wash plate with wash buffer (wash 1) • 12. Repeat wash (wash 2) • 13. Repeat wash (wash 3) • 14. Add 100 uL of substrate solution to each well • 15. Incubate plates 20 min • Note: Plate development is indicated by aqua color • 16. Add 50 uL of stop solution to each well • 17. Determine optical density on Bitek Synergy Neo2: • a. Make new experiment
Select absorbance 1 set to 450 nm

[5] = target: T3, PDGFRα (Homo sapiens, UniProt P16234); assay: HTRF biochemical assay, PDGFRα; details: Table 4, read-out: PDFGRα Biochemical IC50 avg
T3 construct: purchased Millipore 14-467 (lot 26321_ACTI)
T3 sequence (P16234 24-1089): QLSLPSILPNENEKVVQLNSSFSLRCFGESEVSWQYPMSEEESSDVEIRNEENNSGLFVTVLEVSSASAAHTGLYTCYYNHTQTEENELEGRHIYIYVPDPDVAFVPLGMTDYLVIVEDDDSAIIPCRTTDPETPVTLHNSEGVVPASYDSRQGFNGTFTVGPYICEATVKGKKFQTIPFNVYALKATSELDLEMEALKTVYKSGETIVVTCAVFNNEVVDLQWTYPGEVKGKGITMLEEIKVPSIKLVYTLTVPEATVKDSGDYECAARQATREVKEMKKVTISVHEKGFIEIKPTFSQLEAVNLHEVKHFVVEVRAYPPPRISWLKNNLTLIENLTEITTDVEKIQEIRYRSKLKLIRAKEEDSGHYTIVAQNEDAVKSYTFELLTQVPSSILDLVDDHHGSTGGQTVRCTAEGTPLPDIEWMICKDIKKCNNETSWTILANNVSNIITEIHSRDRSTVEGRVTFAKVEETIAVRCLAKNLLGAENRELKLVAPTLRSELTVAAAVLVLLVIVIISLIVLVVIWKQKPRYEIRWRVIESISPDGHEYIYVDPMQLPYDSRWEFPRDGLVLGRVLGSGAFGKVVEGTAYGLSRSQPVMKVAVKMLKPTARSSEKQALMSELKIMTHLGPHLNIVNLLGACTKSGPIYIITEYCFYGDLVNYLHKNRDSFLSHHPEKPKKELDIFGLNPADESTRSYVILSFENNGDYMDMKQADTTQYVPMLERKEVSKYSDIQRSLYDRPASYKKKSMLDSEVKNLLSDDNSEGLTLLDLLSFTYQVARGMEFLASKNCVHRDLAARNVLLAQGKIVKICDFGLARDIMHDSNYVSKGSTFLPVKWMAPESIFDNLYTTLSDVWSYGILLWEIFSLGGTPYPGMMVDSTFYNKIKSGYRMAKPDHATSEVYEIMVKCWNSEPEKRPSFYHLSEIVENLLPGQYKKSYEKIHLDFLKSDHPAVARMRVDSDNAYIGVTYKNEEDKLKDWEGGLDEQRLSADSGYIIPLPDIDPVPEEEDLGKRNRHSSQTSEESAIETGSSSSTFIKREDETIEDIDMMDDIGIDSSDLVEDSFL
Protocol: as §1, §2, §3, §4

T1 sequence (P10721 26-976): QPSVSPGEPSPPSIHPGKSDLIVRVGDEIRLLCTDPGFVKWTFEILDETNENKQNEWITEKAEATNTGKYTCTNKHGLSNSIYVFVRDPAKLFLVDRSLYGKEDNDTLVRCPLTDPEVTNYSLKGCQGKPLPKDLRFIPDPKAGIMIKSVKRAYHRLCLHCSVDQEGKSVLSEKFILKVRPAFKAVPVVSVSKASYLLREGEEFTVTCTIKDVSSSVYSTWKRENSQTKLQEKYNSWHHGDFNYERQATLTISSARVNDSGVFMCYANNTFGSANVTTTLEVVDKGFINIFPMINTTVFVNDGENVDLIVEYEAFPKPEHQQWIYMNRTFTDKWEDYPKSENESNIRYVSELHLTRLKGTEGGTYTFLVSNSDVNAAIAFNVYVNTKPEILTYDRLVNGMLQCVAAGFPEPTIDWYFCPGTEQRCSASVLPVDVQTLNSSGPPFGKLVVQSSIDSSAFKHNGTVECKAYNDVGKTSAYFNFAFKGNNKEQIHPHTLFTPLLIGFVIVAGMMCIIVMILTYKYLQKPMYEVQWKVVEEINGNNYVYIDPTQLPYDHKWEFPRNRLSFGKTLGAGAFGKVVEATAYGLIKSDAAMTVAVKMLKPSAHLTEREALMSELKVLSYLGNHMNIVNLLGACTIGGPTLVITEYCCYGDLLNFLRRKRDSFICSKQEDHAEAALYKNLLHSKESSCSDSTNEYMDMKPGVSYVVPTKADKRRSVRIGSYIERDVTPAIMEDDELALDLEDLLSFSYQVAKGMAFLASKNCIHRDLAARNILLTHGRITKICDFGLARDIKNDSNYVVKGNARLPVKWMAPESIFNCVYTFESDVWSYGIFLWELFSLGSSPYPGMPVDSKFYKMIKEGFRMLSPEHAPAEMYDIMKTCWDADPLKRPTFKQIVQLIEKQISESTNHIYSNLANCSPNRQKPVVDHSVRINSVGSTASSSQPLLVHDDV

SMILES | pIC50 [1] | Solubility (μM) [2] | pIC50 [3] | pIC50 [4] | pIC50 [5]
Cc1ccc(-c2noc(C(O)C3CCC3)n2)cc1NC(=O)c1cnc2ccccn12 (racemic) [Compound I-79] | ≥ 7.30 | **** (a solubility less than or equal to 2 μM) | 6.30 to 7.30 | ≥ 7.30 | 6.30 to 7.30
Cc1ccc(-c2noc(CC(O)C(F)F)n2)cc1NC(=O)c1cnn2ccccc12 (single isomer, unassigned) [Compound I-75] | ≥ 7.30 | **** (a solubility less than or equal to 2 μM) | 6.30 to 7.30 | ≥ 7.30 | 5.30 to 6.30
Cc1ccc(-c2noc(C[C@H](C)O)n2)cc1NC(=O)c1cnn2ccccc12 [Compound I-80] | 6.30 to 7.30 | * (a solubility greater than 50 μM) | 6.30 to 7.30 | ≥ 7.30 | 4.52 to 5.30
Cc1ccc(-c2noc(C[C@@H](C)O)n2)cc1NC(=O)c1cnn2ccccc12 [Compound I-81] | 6.30 to 7.30 | ** (a solubility greater than 10 μM and less than or equal to 50 μM) | 5.30 to 6.30 | ≥ 7.30 | 4.52 to 5.30
Cc1ccc(-c2noc(C3CC3F)n2)cc1NC(=O)c1cnc2cc(COC3CC(O)C3)ccn12 (centres unmarked) [Compound I-85] | ≥ 7.30 | **** (a solubility less than or equal to 2 μM) | ≥ 7.30 | ≥ 7.30 | 5.30 to 6.30
Cc1ccc(-c2noc([C@H]3C[C@@H]3F)n2)cc1NC(=O)c1cnc2ccc(OC(C)C)cn12 [Compound I-86] | ≥ 7.30 | **** (a solubility less than or equal to 2 μM) | ≥ 7.30 | ≥ 7.30 | 6.30 to 7.30
CCOc1ccc2ncc(C(=O)Nc3cc(-c4noc([C@H]5C[C@@H]5F)n4)ccc3C)n2c1 [Compound I-92] | ≥ 7.30 | **** (a solubility less than or equal to 2 μM) | ≥ 7.30 | ≥ 7.30 | 6.30 to 7.30
COc1ccn2c(C(=O)Nc3cc(-c4noc(C[C@@H](C)O)n4)ccc3C)cnc2c1 [Compound I-95] | ≥ 7.30 | **** (a solubility less than or equal to 2 μM) | 6.30 to 7.30 | ≥ 7.30 | 5.30 to 6.30
Cc1ccc(-c2noc([C@H]3C[C@@H]3F)n2)cc1NC(=O)c1cnn2cc(F)ccc12 [Compound I-101] | ≥ 7.30 | **** (a solubility less than or equal to 2 μM) | 6.30 to 7.30 | 6.30 to 7.30 | 4.52 to 5.30
Cc1ccc(-c2noc([C@H]3C[C@@H]3F)n2)cc1NC(=O)c1cnc2ccc(Cl)cn12 [Compound I-102] | ≥ 7.30 | **** (a solubility less than or equal to 2 μM) | ≥ 7.30 | ≥ 7.30 | 5.30 to 6.30
Cc1ccc(-c2noc([C@H]3C[C@@H]3F)n2)cc1NC(=O)c1cnc2cc(F)ccn12 [Compound I-103] | ≥ 7.30 | **** (a solubility less than or equal to 2 μM) | ≥ 7.30 | 6.30 to 7.30 | 5.30 to 6.30
Cc1ccc(-c2noc(C3CC(F)(F)C3)n2)cc1NC(=O)c1cnc2cc(CO)ccn12 [Compound I-105] | ≥ 7.30 | **** (a solubility less than or equal to 2 μM) | ≥ 7.30 | 6.30 to 7.30 | 5.30 to 6.30
Cc1ccc(-c2noc([C@H]3C[C@@H]3F)n2)cc1NC(=O)c1cnc2ccc(C3CNC3)cn12 [Compound I-106] | ≥ 7.30 | * (a solubility greater than 50 μM) | ≥ 7.30 | 6.30 to 7.30 | 6.30 to 7.30
Cc1ccc2ncc(C(=O)Nc3cc(-c4noc([C@H]5C[C@@H]5F)n4)ccc3C)n2c1 [Compound I-108] | ≥ 7.30 | **** (a solubility less than or equal to 2 μM) | ≥ 7.30 | ≥ 7.30 | 6.30 to 7.30
Cc1ccc(-c2noc([C@@H]3CC(F)(F)CN3)n2)cc1NC(=O)c1cnc2cc(COCCO)ccn12 [Compound I-111] | ≥ 7.30 | * (a solubility greater than 50 μM) | 6.30 to 7.30 | ≥ 7.30 | 6.30 to 7.30
COC(=O)N1CC(c2nc(-c3ccc(C)c(NC(=O)c4cnc5cc(CO)ccn45)c3)no2)C1 [Compound I-120] | 6.30 to 7.30 | **** (a solubility less than or equal to 2 μM) | 4.52 to 5.30 | ≥ 7.30 | 4.52 to 5.30

Reference: US20240254119A1 (THIRD HARMONIC BIO, INC., priority 2022, published 2024)
